Data: patent US11945822B2, “Pyrazolo-triazine and/or pyrazolo-pxrimidine derivatives as selective inhibitor of cyclin dependent kinase” (QURIENT CO., LTD., priority 2018, dated 2024)
Where two headings read alike, the source gives them in different places.

Assays:
CDK1/Cyclin B = biological target: T1, CDK1/Cyclin B (Homo sapiens, UniProt P06493); test: Enzymatic assay for CDK1 (FRET based LANCE Ultra kinase assay); assay type: biochemical
T1 construct: purchased Invitrogen PR4768C
Summary of the method: (§1)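 TR-FRET (LANCE Ultra) kinase assay at ATP Km, ULight-MBP peptide substrate (68 nM), 8-dose 4-fold compound series in DMSO. Enzymes: […]; 60 min at 23° C., stopped with EDTA plus Eu-anti-phospho-MBP antibody, read 665/615 nm after 60 min.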

CDK2/Cyclin A = biological target: T2, CDK2/Cyclin A (Homo sapiens, UniProt P24941); test: Enzymatic assay for CDK2 (FRET based LANCE Ultra kinase assay); assay type: biochemical
T2 construct: purchased Invitrogen PV6290
Summary of the method: as §1

CDK5/p25 = biological target: T3, CDK5/p25 (Homo sapiens, UniProt Q00535); test: Enzymatic assay for CDK5 (FRET based LANCE Ultra kinase assay); assay type: biochemical
T3 construct: purchased Invitrogen PR8543B
T3 sequence (Q00535 whole entry): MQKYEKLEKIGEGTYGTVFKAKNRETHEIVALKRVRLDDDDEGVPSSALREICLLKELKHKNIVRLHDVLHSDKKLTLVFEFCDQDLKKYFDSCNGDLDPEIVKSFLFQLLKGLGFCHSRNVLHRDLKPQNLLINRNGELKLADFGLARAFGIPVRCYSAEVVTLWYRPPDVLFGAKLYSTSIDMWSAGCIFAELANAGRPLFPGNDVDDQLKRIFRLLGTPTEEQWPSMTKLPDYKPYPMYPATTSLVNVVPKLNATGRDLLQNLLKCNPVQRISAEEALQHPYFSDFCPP
T3 sequence (Q15078 99-307 partner limits assumed): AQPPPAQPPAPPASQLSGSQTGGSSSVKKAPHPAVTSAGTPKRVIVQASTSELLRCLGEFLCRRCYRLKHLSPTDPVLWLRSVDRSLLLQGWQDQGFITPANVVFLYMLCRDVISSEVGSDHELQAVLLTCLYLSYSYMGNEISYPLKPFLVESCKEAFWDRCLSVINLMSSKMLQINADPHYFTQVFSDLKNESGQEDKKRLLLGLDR
Summary of the method: as §1

CDK7/Cyclin H/MNAT1 = biological target: T4, CDK7/Cyclin H/MNAT1 (Homo sapiens, UniProt P50613); test: Enzymatic assay for CDK7 (FRET based LANCE Ultra kinase assay); assay type: biochemical
T4 construct: purchased Invitrogen PR6749B
T4 sequence (P50613 whole entry): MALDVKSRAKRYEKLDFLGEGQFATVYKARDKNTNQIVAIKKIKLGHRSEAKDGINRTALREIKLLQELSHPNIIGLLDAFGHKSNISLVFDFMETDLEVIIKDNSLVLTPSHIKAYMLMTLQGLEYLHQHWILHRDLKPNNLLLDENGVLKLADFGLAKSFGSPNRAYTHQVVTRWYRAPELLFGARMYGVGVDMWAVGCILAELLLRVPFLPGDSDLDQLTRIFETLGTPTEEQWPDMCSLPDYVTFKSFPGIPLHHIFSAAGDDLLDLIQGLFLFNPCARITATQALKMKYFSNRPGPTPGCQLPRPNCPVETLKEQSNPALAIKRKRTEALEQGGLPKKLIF
T4 sequence (P51946 whole entry partner): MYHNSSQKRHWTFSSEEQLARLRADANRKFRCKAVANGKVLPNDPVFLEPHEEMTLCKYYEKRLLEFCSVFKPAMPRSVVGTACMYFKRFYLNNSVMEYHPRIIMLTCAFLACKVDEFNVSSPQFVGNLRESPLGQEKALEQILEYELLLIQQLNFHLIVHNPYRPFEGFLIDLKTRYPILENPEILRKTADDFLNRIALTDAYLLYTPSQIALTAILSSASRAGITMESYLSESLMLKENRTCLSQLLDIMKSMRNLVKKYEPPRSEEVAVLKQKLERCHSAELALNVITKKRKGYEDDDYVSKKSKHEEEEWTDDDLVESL
T4 sequence (P51948 whole entry partner): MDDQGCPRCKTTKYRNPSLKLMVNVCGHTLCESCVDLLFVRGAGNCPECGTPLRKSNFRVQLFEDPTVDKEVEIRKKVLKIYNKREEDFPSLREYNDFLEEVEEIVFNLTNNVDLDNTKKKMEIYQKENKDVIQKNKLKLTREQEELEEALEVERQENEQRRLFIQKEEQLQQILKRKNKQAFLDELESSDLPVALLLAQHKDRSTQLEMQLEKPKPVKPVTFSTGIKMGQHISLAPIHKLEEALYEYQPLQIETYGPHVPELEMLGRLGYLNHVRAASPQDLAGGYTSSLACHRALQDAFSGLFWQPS
Summary of the method: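 Inhibition was measured at Km ATP by time-resolved FRET between a Eu anti-phospho antibody and a phosphorylated ULight peptide. The enzyme was the purified CDK7/cyclin complex, and data were curve-fitted.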

H460 = test: Cellular H460 viability assay (CellTiter-Glo, 72 hours); assay type: cell-based; conditions: Homo sapiens, NCI-H460
Summary of the method: (§2)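 Mycoplasma-tested cells, seeded at densities chosen for each line, received compound or DMSO vehicle (under 0.1% final) for 72 hours. Duplicate cultures were then read for viability by CellTiter-Glo luminescence.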

MV4-11 = test: Cellular MV4-11 viability assay (CellTiter-Glo, 72 hours); assay type: cell-based; conditions: Homo sapiens
Summary of the method: as §2

A2780 = test: Cellular A2780 viability assay (CellTiter-Glo, 72 hours); assay type: cell-based; conditions: Homo sapiens
Summary of the method: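 Compound exposure lasted 72 h at 37° C, 5% CO2, over 0.0015–10 uM, DMSO kept under 0.1%, with dosing 24 h after seeding. Seeding: A2780 1×10^3, OVCAR-3 5×10^3, MM.1S 1×10^4 cells/well in 10% FBS RPMI-1640. Duplicate CellTiter-Glo luminescence readout.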

OVCAR-3 = test: Cellular OVCAR-3 viability assay (CellTiter-Glo, 72 hours); assay type: cell-based; conditions: Homo sapiens
From the text: Human T-cell acute lymphoblastic leukemia cell line, MOLT-4 (ATCC, Cat #CRL-1582), Human multiple myeloma cell line, RPMI-8226 (Invitrogen, Cat #22400-089) and MM.1S (ATCC, Cat #CRL-2974), NSCLC (Non-small cell lung cancer) cell line H460 (ATCC, Cat #HTB-177), Human colon colorectal carcinoma cell line HCT116 (ATCC, Cat #CCL-247), Human acute monocytic leukemia cell line MV4-11 (ATCC, Cat #CRL-9591), OVCAR-3 (ATCC, Cat #HTB-161) and A2780 (ECACC, Cat #93112519) were obtained from ATCC. Cells were grown in RPMI-1640 media (Invitrogen, Cat #22400-089) supplemented with 10% FBS (Invitrogen, Cat #10099141) and 1% penicillin/streptomycin (Invitrogen, Cat #15070063) and cultured at 37° C., 5% CO2 in a humidified chamber. All cell lines were routinely tested for mycoplasma.
The effect of the CDK7 inhibitor to inhibit the growth of target cancer cells was evaluated through the 72 hours time period of viability assay. Briefly, the candidate cell line ware plated in 96 well plate at the following density of cells respectively. 1×10^4 cells/well for MOLT-4, RPMI-8226, MV4-11 and MM.1S, 5×10^3 for H460, HCT116 and OVCAR-3 and IX 10^3 for A2780. After 24 hours, the cells were treated with various concentrations of the compound (ranging from 0.0015 uM to 10 uM). DMSO solvent without compound served as a control and final DMSO concentration less than 0.1%. After 72 hours of incubation at 37° C., 5% CO2 incubator, cells were analyzed for the viability using the CellTiter-Glo Luminescent Cell Viability Assay (Promega, Cat #G7570). All viability assays were performed in duplicate and Luminescence was read using an Envision (Perkin Elmer, USA). Data was analyzed using XLfit software.

HCT116 = test: Cellular HCT116 viability assay (CellTiter-Glo, 72 hours); assay type: cell-based; conditions: Homo sapiens, HCT-116
Summary of the method: as §2

RPMI-8226 = test: Cellular RPMI-8226 viability assay (CellTiter-Glo, 72 hours); assay type: cell-based; conditions: Homo sapiens
Summary of the method: as §2

[1] = read-out: CDK1 enzymatic activity (IC50 activity range)
[2] = read-out: CDK2 enzymatic activity (IC50 activity range)
[3] = read-out: CDK5 enzymatic activity (IC50 activity range)
[4] = read-out: CDK7 enzymatic activity (IC50 activity range)
[5] = read-out: CDK1 enzymatic activity (IC50 range)
[6] = read-out: CDK2 enzymatic activity (IC50 range)
[7] = read-out: CDK5 enzymatic activity (IC50 range)
[8] = read-out: CDK7 enzymatic activity (IC50 range)

T1 sequence (P06493 whole entry): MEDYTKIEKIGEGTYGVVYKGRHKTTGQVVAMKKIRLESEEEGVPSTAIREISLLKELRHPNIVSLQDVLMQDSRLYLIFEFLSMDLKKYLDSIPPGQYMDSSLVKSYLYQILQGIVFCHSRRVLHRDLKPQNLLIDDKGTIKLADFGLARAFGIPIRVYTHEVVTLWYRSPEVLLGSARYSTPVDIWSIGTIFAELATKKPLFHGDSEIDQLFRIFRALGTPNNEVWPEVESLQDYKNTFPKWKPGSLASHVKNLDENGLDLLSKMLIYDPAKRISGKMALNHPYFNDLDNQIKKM
T1 sequence (P14635 whole entry partner): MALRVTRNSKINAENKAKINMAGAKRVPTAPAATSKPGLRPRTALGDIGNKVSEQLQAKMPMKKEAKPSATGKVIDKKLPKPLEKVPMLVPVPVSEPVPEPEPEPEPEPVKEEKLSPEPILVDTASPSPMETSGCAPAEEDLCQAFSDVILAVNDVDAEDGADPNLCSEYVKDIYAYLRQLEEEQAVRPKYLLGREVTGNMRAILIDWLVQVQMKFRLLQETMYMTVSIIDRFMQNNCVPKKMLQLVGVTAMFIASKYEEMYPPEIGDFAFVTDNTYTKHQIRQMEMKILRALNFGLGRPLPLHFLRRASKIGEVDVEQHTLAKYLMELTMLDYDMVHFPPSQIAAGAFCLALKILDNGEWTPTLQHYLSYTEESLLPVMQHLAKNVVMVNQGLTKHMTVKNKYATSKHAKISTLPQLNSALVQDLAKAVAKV

| Compound | IC50 (CDK1/Cyclin B; [1]) | IC50 (CDK2/Cyclin A; [2]) | IC50 (CDK5/p25; [3]) | CDK1/CDK7: Selectivity of CDK7 inhibition over CDK1 inhibition (CDK7/Cyclin H/MNAT1; CDK1/CDK7) | CDK2/CDK7: Selectivity of CDK7 inhibition over CDK2 inhibition (CDK7/Cyclin H/MNAT1; CDK2/CDK7) | CDK5/CDK7: Selectivity of CDK7 inhibition over CDK5 inhibition (CDK7/Cyclin H/MNAT1; CDK5/CDK7) | IC50 (CDK7/Cyclin H/MNAT1; [4]) | IC50 (H460) | IC50 (MV4-11) | IC50 (A2780) | IC50 (OVCAR-3) | IC50 (CDK1/Cyclin B; [5]) | IC50 (CDK2/Cyclin A; [6]) | IC50 (CDK5/p25; [7]) | CDK1/CDK7: Selectivity of CDK7 inhibition over CDK1 inhibition (CDK7/Cyclin H/MNAT1; CDK7 over CDK1) | CDK2/CDK7: Selectivity of CDK7 inhibition over CDK2 inhibition (CDK7/Cyclin H/MNAT1; CDK7 over CDK2) | CDK5/CDK7: Selectivity of CDK7 inhibition over CDK5 inhibition (CDK7/Cyclin H/MNAT1; CDK7 over CDK5) | IC50 (CDK7/Cyclin H/MNAT1; [8]) | IC50 (HCT116) | IC50 (RPMI-8226) |
| --- | --- | --- | --- | --- | --- | --- | --- | --- | --- | --- | --- | --- | --- | --- | --- | --- | --- | --- | --- | --- |
| CC(C)c1cnn2c(NCc3ccccc3-c3ccc4ccccc4n3)nc(N[C@H]3CC[C@H](O)CC3)nc12 [Compound 266] | > 1000 nM | > 1000 nM | > 1000 nM | A (A=greater than 200 fold) | A (A=greater than 200 fold) | A (A=greater than 200 fold) | < 100 nM | < 1000 nM | 1000 to 10000 nM | ≤ 1000 nM | ≤ 1000 nM | – | – | – | – | – | – | – | – | – |
| CC(C)c1cnn2c(NCc3ccccc3-c3ccc4ccccc4n3)nc(N[C@H]3CC[C@@H](O)CC3)nc12 [Compound 265] | > 1000 nM | > 1000 nM | > 1000 nM | A (A=greater than 200 fold) | A (A=greater than 200 fold) | A (A=greater than 200 fold) | < 100 nM | < 1000 nM | 1000 to 10000 nM | ≤ 1000 nM | 1000 to 10000 nM | – | – | – | – | – | – | – | – | – |
| CC(C)c1cnn2c(NCc3ccccc3-c3cc4cccc(NC(=O)C5CC5)c4[nH]3)nc(N3CCC(N)CC3)nc12 [Compound 144] | – | – | – | – | – | – | – | < 1000 nM | < 1000 nM | ≤ 1000 nM | 1000 to 10000 nM | 100 to 1000 nM | 100 to 1000 nM | < 100 nM | B (B=less than 200 fold, but greater than 20 fold) | B (B=less than 200 fold, but greater than 20 fold) | C (C=less than 20 fold) | < 100 nM | < 1000 nM | < 1000 nM |
| CC(C)c1cnn2c(NCc3ccccc3-c3nccc4cc(NC(=O)CCCN(C)C)ccc34)nc(NC[C@H]3CCNC[C@@H]3O)nc12 [Compound 278] | > 1000 nM | > 1000 nM | > 1000 nM | A (A=greater than 200 fold) | A (A=greater than 200 fold) | A (A=greater than 200 fold) | < 100 nM | – | – | 1000 to 10000 nM | > 10000 nM | – | – | – | – | – | – | – | – | – |
| CC(C)c1cnn2c(NCc3ccccc3-c3ccc4ccccc4n3)nc(NC[C@H]3CCNC[C@@H]3O)nc12 [Compound 225] | – | – | – | – | – | – | – | < 1000 nM | < 1000 nM | ≤ 1000 nM | ≤ 1000 nM | > 1000 nM | 100 to 1000 nM | 100 to 1000 nM | A (A=greater than 200 fold) | A (A=greater than 200 fold) | A (A=greater than 200 fold) | < 100 nM | < 1000 nM | – |
| CC(C)c1cnn2c(NCc3ccccc3-c3nccc4ccccc34)nc(NC[C@H]3CCNC[C@@H]3O)nc12 [Compound 279] | > 1000 nM | > 1000 nM | > 1000 nM | B (B=less than 200 fold, but greater than 20 fold) | B (B=less than 200 fold, but greater than 20 fold) | B (B=less than 200 fold, but greater than 20 fold) | 100 to 1000 nM | – | – | ≤ 1000 nM | 1000 to 10000 nM | – | – | – | – | – | – | – | – | – |
| CC(C)c1cnn2c(NCc3ccccc3-c3ccc4ccccc4n3)nc(NCC[C@@H](O)CN)nc12 [Compound 251] | > 1000 nM | > 1000 nM | > 1000 nM | A (A=greater than 200 fold) | A (A=greater than 200 fold) | A (A=greater than 200 fold) | < 100 nM | < 1000 nM | < 1000 nM | ≤ 1000 nM | 1000 to 10000 nM | – | – | – | – | – | – | – | – | – |
| CC(C)c1cnn2c(NCc3ccccc3-c3ccc4ccccc4n3)nc(N3CCNC[C@H]3CO)nc12 [Compound 271] | > 1000 nM | > 1000 nM | > 1000 nM | A (A=greater than 200 fold) | A (A=greater than 200 fold) | A (A=greater than 200 fold) | < 100 nM | < 1000 nM | < 1000 nM | ≤ 1000 nM | ≤ 1000 nM | – | – | – | – | – | – | – | – | – |
| CC(C)c1cnn2c(NCc3ccccc3-c3ccc4ccccc4n3)nc(N3CCC(O)(CN)CC3)nc12 [Compound 219] | – | – | – | – | – | – | – | < 1000 nM | < 1000 nM | ≤ 1000 nM | 1000 to 10000 nM | > 1000 nM | > 1000 nM | > 1000 nM | A (A=greater than 200 fold) | A (A=greater than 200 fold) | A (A=greater than 200 fold) | < 100 nM | < 1000 nM | – |
| CC(C)c1cnn2c(NCc3c(Cl)cccc3-n3ccc(C(C)(C)O)n3)nc(Nc3cc[nH]c3)nc12 [Compound 277] | > 1000 nM | > 1000 nM | > 1000 nM | C (C=less than 20 fold) | C (C=less than 20 fold) | C (C=less than 20 fold) | > 1000 nM | – | – | > 10000 nM | > 10000 nM | – | – | – | – | – | – | – | – | – |
